Results as given in patent publication US8221975B2, “Method for detection of microorganism” (Morinaga Milk Industry Co., Ltd., priority 2007, dated 2012).

Tests used:
Format in all cases: cell-based
[1] = tested on: Salmonella enteritidis IIP 604; test: invA-PCR (378 bp) of EMA-treated Salmonella, band intensity of final amplified product; conditions: for bands of invA gene amplified products (electrophoresis, FIG. 4): multi-step treatment (EMA 10 μg/ml-incubation-EMA 10 μg/ml)
Enterobacter sakazakii = test: ompA-PCR (469 bp) of EMA-treated Enterobacter sakazakii, band intensity of final amplified product
Method: (§1) A Gram-negative bacterium, Enterobacter sakazakii (Enterobacter sakazakii ATCC […]; hereinafter, abbreviated as “sakazakii” in some cases), was cultured in brain-heart infusion (BHI) broth at 37° C., and 5 ml of the culture medium in the logarithmic growth phase was centrifuged at 8,000×g for 15 minutes at 4° C., followed by removal of the supernatant. 5 ml of physiological saline was added to the bacterial cells, and the whole was vigorously stirred and diluted 10-fold. Thus, a live cell suspension was prepared. […] The live cell suspension (1 ml) was placed in a 1.5-ml microtube, and the microtube was immersed in boiling water for 2 minutes and immediately cooled with ice water, to thereby prepare a injured cell suspension. The cells in the suspension probably include small numbers of live cells and dead cells but include mainly injured cells. Therefore, the cells are simply referred to as “injured cells”. Note that the method of the present invention is originally intended to detect live cells, and microorganism cells distinguished from live cells may be injured cells or dead cells. Ethidium monoazide (EMA) was added to the live cell suspension and injured cell suspension of sakazakii prepared above at a final concentration of 0, 10, 25, or 100 μg/ml, and the suspensions were allowed to stand under shading at 4° C. for 10 minutes. The suspensions were placed on ice and irradiated for 5 minutes with a 500-W visible light (FLOOD PRF: 100 […] ELECTRIC CO., LTD., wavelength: 500 to 700 nm) at a distance of 20 cm from the suspensions. Then, the suspensions were centrifuged at 15,000×g for 10 minutes at 4° C., and the supernatants were removed. An equal volume of physiological saline was added thereto, and the suspensions were stirred and centrifuged while cooling at 15,000×g for 10 minutes at 4° C., followed by removal of the supernatants. An equal volume of brain-heart infusion (BHI) broth was added thereto, and the suspensions were incubated at 37° C. for 2 hours. In the first EMA treatment, EMA was not added again to the live cell and injured cell suspensions having an EMA concentration of 0, while EMA was added again at a final concentration of 10 μg/ml to the live cell and injured cell suspensions having an EMA concentration of 10, 25, or 100 μg/ml. The suspensions were allowed to stand under shading at 4° C. for 10 minutes, placed on ice, and irradiated for 5 minutes with a 500-W visible light at a distance of 20 cm from the suspensions. Ethidium monoazide (EMA) was added to the live cell and injured cell suspensions of sakazakii prepared in the section “1.” at a final concentration of 0, 10, 25 or 100 μg/ml, and the suspensions were allowed to stand under shading at 4° C. for 10 minutes, placed on ice, and irradiated for 5 minutes with a 500-W visible light (FLOOD PRF: […] ELECTRIC CO., LTD., wavelength: 500 to 700 nm) at a distance of 20 cm from the suspensions. Microtubes including one of the live cell and injured cell suspensions of sakazakii treated in the sections 2-1) and 2-2) above were centrifuged at 15,000×g for 10 minutes at 4° C. The supernatants were removed, and 1 ml of physiological saline was added thereto. The resultant suspensions were stirred vigorously and centrifuged while cooling in the same way as above (washing treatment). One more washing treatment was performed in the same way, and the same amount of sterile water as the initial amount was added to the pellets, followed by vigorous stirring. PCR Master Mix (total volume: 25.25 μl) was prepared using Direct Buffer Mix (G&g SCIENCE CO., LTD., Yokohama, Kanagawa) capable of sequentially and automatically performing elution of chromosomal DNA from a bacterium and PCR reactions. […]

[2] = tested on: Enterobacter sakazakii ATCC 6538P; test: as above; conditions: multi-step treatment (EMA 10 μg/ml-incubation-EMA 10 μg/ml)
Method: as §1

[3] = tested on: Enterobacter sakazakii ATCC 6538P; test: MMS-PCR of EMA-treated Enterobacter sakazakii, band intensity of final amplified product; conditions: for bands of MMS gene amplified products (electrophoresis, FIG. 3): multi-step treatment (EMA 10 μg/ml-incubation-EMA 10 μg/ml)
Method: as §1

[4] = tested on: Enterobacter sakazakii ATCC 6538P; test: ompA real-time PCR (469 bp) of EMA-treated Enterobacter sakazakii, Ct value
[5] = multi-step: EMA 10 μg/ml + Incubation (37° C., 2 hr) + EMA 10 μg/ml, Injured cell
[6] = multi-step: EMA 10 μg/ml + Incubation (37° C., 2 hr) + EMA 10 μg/ml, Live cell
[7] = single-step EMA 10 μg/ml, Injured cell
[8] = single-step EMA 10 μg/ml, Live cell
[9] = single-step EMA 25 μg/ml, Injured cell
[10] = single-step EMA 25 μg/ml, Live cell
[11] = single-step EMA 100 μg/ml, Injured cell
[12] = single-step EMA 100 μg/ml, Live cell
[13] = two-step EMA 10/10 μg/ml, Injured cell
[14] = two-step EMA 10/10 μg/ml, Live cell
[15] = two-step EMA 25/10 μg/ml, Injured cell
[16] = two-step EMA 25/10 μg/ml, Live cell
[17] = two-step EMA 100/10 μg/ml, Injured cell
[18] = two-step EMA 100/10 μg/ml, Live cell

`CC[n+]1c(-c2ccccc2)c2cc(N=[N+]=[N-])ccc2c2ccc(N)cc21` [EMA, ethidium monoazide] was tested, and the “bands of invA gene amplified products (electrophoresis, FIG. 4)” value ([1]; injured cells) was “no band was detected”, the “bands of invA gene amplified products (electrophoresis, FIG. 4)” value ([1]; live cells) was “bands were clearly detected” and the Band Intensity [1, 5] was 0.000. For the same compound, the Band Intensity [1, 6] was 0.742, the Band Intensity [1, 7] was 1.218 and the Band Intensity [1, 8] was 2.856. For the same compound, the “Band Intensity” value (Enterobacter sakazakii; [5]) was 0.000, the “Band Intensity” value (Enterobacter sakazakii; [6]) was 1.546 and the “Band Intensity” value (Enterobacter sakazakii; [7]) was 0.502. For the same compound, the “Band Intensity” value (Enterobacter sakazakii; [8]) was 1.690, the “bands of ompA gene amplified products (electrophoresis, FIG. 2)” value ([2]; injured cells) was “no band was detected” and the “bands of ompA gene amplified products (electrophoresis, FIG. 2)” value ([2]; live cells) was “bands were clearly detected”. The “bands of MMS gene amplified products (electrophoresis, FIG. 3)” value ([3]; injured cells) was “no band was detected”, the “bands of MMS gene amplified products (electrophoresis, FIG. 3)” value ([3]; live cells) was “bands were clearly detected” and the Band Intensity [3, 5] was 0.000. For the same compound, the Band Intensity [3, 6] was 0.997, the Band Intensity [3, 7] was 0.855 and the Band Intensity [3, 8] was 0.845. For the same compound, the “Ct value (mean ± SD, N = 2)” value [4, 7] was 36.3, ND^c,d, the “number of times of positive reaction in two PCR assays (i/2)” value (from here on “number of times of positive reaction”) [4, 7] was “(1/2)” and the “Ct value (mean ± SD, N = 2)” value [4, 8] was 18.8 ± 0.3. The “number of times of positive reaction” value [4, 8] was “(2/2)”, the “Ct value (mean ± SD, N = 2)” value [4, 9] was “ND, ND” and the “number of times of positive reaction” value [4, 9] was “(0/2)”. The “Ct value (mean ± SD, N = 2)” value [4, 10] was 20.9±0.6, the “number of times of positive reaction” value [4, 10] was “(2/2)” and the “Ct value (mean ± SD, N = 2)” value [4, 11] was 35.0, ND. For the same compound, the “number of times of positive reaction” value [4, 11] was “(1/2)”, the “Ct value (mean ± SD, N = 2)” value [4, 12] was 23.9 ± 0.9 and the “number of times of positive reaction” value [4, 12] was “(2/2)”. For the same compound, the “Ct value (mean ± SD, N = 2)” value [4, 13] was “ND, ND”, the “number of times of positive reaction” value [4, 13] was “(0/2)” and the “Ct value (mean ± SD, N = 2)” value [4, 14] was 15.9±0.4. For the same compound, the “number of times of positive reaction” value [4, 14] was “(2/2)”, the “Ct value (mean ± SD, N = 2)” value [4, 15] was “ND, ND” and the “number of times of positive reaction” value [4, 15] was “(0/2)”. For the same compound, the “Ct value (mean ± SD, N = 2)” value [4, 16] was 20.1 ± 1.6, the “number of times of positive reaction” value [4, 16] was “(2/2)” and the “Ct value (mean ± SD, N = 2)” value [4, 17] was 36.0, ND. For the same compound, the “number of times of positive reaction” value [4, 17] was “(1/2)”, the “Ct value (mean ± SD, N = 2)” value [4, 18] was 23.6 ± 0.4 and the “number of times of positive reaction” value [4, 18] was “(2/2)”.
